Source: ChEMBL document CHEMBL6182839, “Exploration of the cytotoxic and microtubule disruption potential of novel imidazo[1,5-a]pyridine-based chalcones” (RSC Med Chem, 2025)
Activity calls are given as the source filed them. The calls are words filed in the database; no cut-off is given here.

Tests used:
MG-63 = assay: Cytotoxicity against human MG-63 cells assessed as inhibition of cell growth incubated for 48 hrs by MTT assay; type: functional, cell-based; details: MG-63, 48 h
PC-3 = assay: Cytotoxicity against human PC-3 cells assessed as inhibition of cell growth incubated for 48 hrs by MTT assay; type: functional, cell-based; details: PC-3, 48 h
MDA-MB-231 [1] = assay: Cytotoxicity against human MDA-MB-231 cells assessed as inhibition of cell growth incubated for 48 hrs by MTT assay; type: functional, cell-based; details: MDA-MB-231, 48 h
HepG2 = assay: Cytotoxicity against human HepG2 cells assessed as inhibition of cell growth incubated for 48 hrs by MTT assay; type: functional, cell-based; details: HepG2, 48 h
RKO = assay: Cytotoxicity against human RKO cells assessed as inhibition of cell growth incubated for 48 hrs by MTT assay; type: functional, cell-based
MDA-MB-231 [2] = assay: Induction of apoptosis in human MDA-MB-231 cells assessed as late apoptotic cells at 10 uM incubated for 24 hrs by annexin V-FITC/PI staining based flow cytometry analysis (reference value: 0.2%); type: functional
MDA-MB-231 [3] = assay: Induction of apoptosis in human MDA-MB-231 cells assessed as necrotic cells at 10 uM incubated for 24 hrs by annexin V-FITC/PI staining based flow cytometry analysis (reference value: 0.0%); type: functional
MDA-MB-231 [4] = assay: Induction of apoptosis in human MDA-MB-231 cells assessed as early apoptotic cells at 10 uM incubated for 24 hrs by annexin V-FITC/PI staining based flow cytometry analysis (reference value: 1.4%); type: functional
MDA-MB-231 [5] = assay: Induction of apoptosis in human MDA-MB-231 cells assessed as viable cells at 10 uM incubated for 24 hrs by annexin V-FITC/PI staining based flow cytometry analysis (reference value: 98.4%); type: functional; details: read-out: Activity
Mitochondrial membrane = assay: Induction of mitochondrial membrane potential depolarization in human MDA-MB-231 cells at 5 to 10 uM incubated for 24 hrs by JC-1 dye based flow cytometric analysis; details: dose 5-10 µM
MDA-MB-231 [6] = assay: Induction of intracellular ROS generation in human MDA-MB-231 cells at 5 to 10 uM incubated for 24 hrs by H2DCFDA staining based flow cytometric analysis; type: functional, cell-based; details: dose 5-10 µM
MDA-MB-231 [7] = assay: Induction of apoptosis in human MDA-MB-231 cells assessed as viable cells at 5 uM incubated for 24 hrs by annexin V-FITC/PI staining based flow cytometry analysis (reference value: 98.4%); type: functional; details: read-out: Activity
MDA-MB-231 [8] = assay: Induction of apoptosis in human MDA-MB-231 cells assessed as necrotic cells at 5 uM incubated for 24 hrs by annexin V-FITC/PI staining based flow cytometry analysis (reference value: 0.0%); type: functional
MDA-MB-231 [9] = assay: Induction of apoptosis in human MDA-MB-231 cells assessed as late apoptotic cells at 5 uM incubated for 24 hrs by annexin V-FITC/PI staining based flow cytometry analysis (reference value: 0.2%); type: functional
Tubulin (Homo sapiens) [10] = target: T1, Tubulin (Homo sapiens) (UniProt P68371+Q9H4B7+P0DPH7+P68366+Q13509+Q71U36+P04350+Q3ZCM7+P07437+P68363+Q9BQE3+Q6PEY2+Q13885+Q9BVA1+Q9BUF5); assay: Disruption of microtubule network in human MDA-MB-231 cells assessed as decrease in beta-tubulin expression at 5 to 10 uM incubated for 24 hrs by immunofluorescence staining based confocal microscopic analysis; type: cell-based; details: dose 5-10 µM
Tubulin (Homo sapiens) [11] = target: T1, Tubulin (Homo sapiens); assay: Disruption of microtubule network in human MDA-MB-231 cells assessed as decrease in beta-tubulin expression incubated for 24 hrs by immunofluorescence staining based confocal microscopic analysis; type: cell-based; details: dose 5-10 µM
[12] = Selectivity ratio of IC50 for HEK cells to IC50 for human PC-3 cells; type: toxicity; details: HEK cells versus PC-3 cells, read-out: Ratio IC50
[13] = Cytotoxicity against HEK cells assessed as inhibition of cell growth incubated for 48 hrs by MTT assay; type: toxicity, cell-based; details: human
[14] = Selectivity ratio of IC50 for HEK cells to IC50 for human MDA-MB-231 cells; type: toxicity; details: HEK cells versus MDA-MB-231 cells, read-out: Ratio IC50
[15] = Selectivity ratio of IC50 for HEK cells to IC50 for human HepG2 cells; type: toxicity; details: HEK cells versus HepG2 cells, read-out: Ratio IC50
MDA-MB-231 [16] = assay: Induction of apoptosis in human MDA-MB-231 cells assessed as early apoptotic cells at 5 uM incubated for 24 hrs by annexin V-FITC/PI staining based flow cytometry analysis (reference value: 1.4%); type: functional

SMILES | IC50 (MG-63) | IC50 (PC-3) | IC50 (MDA-MB-231 [1]) | IC50 (HepG2) | IC50 (RKO) | other results
COc1ccc(-c2nc(/C=C/C(=O)c3ccc(Cl)c(Cl)c3)c3ccccn23)cc1 | 46.3 µM | > 50 µM | > 50 µM | > 50 µM | > 50 µM | –
COc1ccc(C(=O)/C=C/c2nc(-c3ccccc3)n3ccccc23)cc1OC | 56.3 µM | > 50 µM | > 50 µM | > 50 µM | > 50 µM | –
COc1ccc(-c2nc(/C=C/C(=O)c3cc(OC)c(OC)c(OC)c3)c3ccccn23)cc1 | 21.3 µM | > 50 µM | > 50 µM | > 50 µM | > 50 µM | –
O=C(/C=C/c1nc(-c2ccc(C(F)(F)F)cc2)n2ccccc12)c1ccc(Cl)c(Cl)c1 | > 50 µM | > 50 µM | > 50 µM | > 50 µM | > 50 µM | –
O=C(/C=C/c1nc(-c2ccc(F)cc2)n2ccccc12)c1ccc(F)c(F)c1 | 11.6 µM | > 50 µM | > 50 µM | > 50 µM | > 50 µM | –
COC(=O)Nc1nc2cc(C(=O)c3cccs3)ccc2[nH]1 [NOCODAZOLE] | 1.25 µM | 2.89 µM | 3.2 µM | 2.15 µM | 2.56 µM | Activity (MDA-MB-231 [2]): 48.3%; Activity (MDA-MB-231 [3]): 0%; Activity (MDA-MB-231 [4]): 5.6%; viability at 10 µM (MDA-MB-231 [5]): 46%; Activity (Mitochondrial membrane): Active; Activity (MDA-MB-231 [6]): Active
COc1ccc(C(=O)/C=C/c2nc(-c3ccc(C(F)(F)F)cc3)n3ccccc23)cc1OC | > 50 µM | > 50 µM | > 50 µM | > 50 µM | > 50 µM | –
COc1ccc(-c2nc(/C=C/C(=O)c3ccc(F)c(F)c3)c3ccccn23)cc1 | 32.6 µM | > 50 µM | > 50 µM | > 50 µM | > 50 µM | –
COc1cc(C(=O)/C=C/c2nc(-c3ccc(C(F)(F)F)cc3)n3ccccc23)cc(OC)c1OC | > 50 µM | > 50 µM | > 50 µM | > 50 µM | > 50 µM | –
O=C(/C=C/c1nc(-c2ccccc2)n2ccccc12)c1ccc(Cl)c(Cl)c1 | 45.6 µM | > 50 µM | > 50 µM | > 50 µM | > 50 µM | –
COc1ccc(-c2nc(/C=C/C(=O)c3ccc(OC)c(OC)c3)c3ccccn23)cc1 | 20.5 µM | > 50 µM | > 50 µM | > 50 µM | > 50 µM | –
O=C(/C=C/c1nc(-c2ccccc2)n2ccccc12)c1ccc(F)c(F)c1 | 85.2 µM | > 50 µM | > 50 µM | > 50 µM | > 50 µM | –
O=C(/C=C/c1nc(-c2ccc(Cl)cc2)n2ccccc12)c1ccc(F)c(F)c1 | > 50 µM | > 50 µM | > 50 µM | > 50 µM | > 50 µM | –
COc1cc(C(=O)/C=C/c2nc(-c3ccc(Cl)cc3)n3ccccc23)cc(OC)c1OC | 6.23 µM | 17.9 µM | 4.23 µM | 20.8 µM | 18.8 µM | viability at 5 µM (MDA-MB-231 [7]): 90.6%; Activity (MDA-MB-231 [2]): 13.9%; Activity (MDA-MB-231 [8]): 0%; Activity (MDA-MB-231 [9]): 5.5%; Activity (Tubulin (Homo sapiens) [10]): Active; Activity (MDA-MB-231 [3]): 0.3%; Activity (Tubulin (Homo sapiens) [11]): Dose-dependent-effect; Activity (MDA-MB-231 [4]): 18.6%; selectivity ratio [12]: 3; IC50 at 48 h [13]: 50 µM; viability at 10 µM (MDA-MB-231 [5]): 67.2%; selectivity ratio [14]: 11; selectivity ratio [15]: 2; Activity (MDA-MB-231 [16]): 3.8%; Activity (Mitochondrial membrane): Active; Activity (MDA-MB-231 [6]): Active
O=C(/C=C/c1nc(-c2ccc(F)cc2)n2ccccc12)c1ccc(Cl)c(Cl)c1 | 10.2 µM | > 50 µM | > 50 µM | > 50 µM | > 50 µM | –
COc1ccc(C(=O)/C=C/c2nc(-c3ccc(F)cc3)n3ccccc23)cc1OC | > 50 µM | > 50 µM | > 50 µM | > 50 µM | > 50 µM | –
COc1cc(C(=O)/C=C/c2nc(-c3ccccc3)n3ccccc23)cc(OC)c1OC | 12.6 µM | > 50 µM | 12.3 µM | 13.6 µM | > 50 µM | –
COc1ccc(C(=O)/C=C/c2nc(-c3ccc(Cl)cc3)n3ccccc23)cc1OC | > 50 µM | > 50 µM | > 50 µM | > 50 µM | > 50 µM | –
O=C(/C=C/c1nc(-c2ccc(Cl)cc2)n2ccccc12)c1ccc(Cl)c(Cl)c1 | 7.89 µM | 14.9 µM | 3.26 µM | 4.57 µM | 7.83 µM | viability at 5 µM (MDA-MB-231 [7]): 66.5%; Activity (MDA-MB-231 [2]): 29.9%; Activity (MDA-MB-231 [8]): 1.6%; Activity (MDA-MB-231 [9]): 26.9%; Activity (Tubulin (Homo sapiens) [10]): Active; Activity (MDA-MB-231 [3]): 0.3%; Activity (Tubulin (Homo sapiens) [11]): Dose-dependent-effect; Activity (MDA-MB-231 [4]): 21.2%; selectivity ratio [12]: 4; IC50 at 48 h [13]: 62 µM; viability at 10 µM (MDA-MB-231 [5]): 48.6%; selectivity ratio [14]: 19; selectivity ratio [15]: 13; Activity (MDA-MB-231 [16]): 5.1%; Activity (Mitochondrial membrane): Active; Activity (MDA-MB-231 [6]): Active
O=C(/C=C/c1nc(-c2ccc(C(F)(F)F)cc2)n2ccccc12)c1ccc(F)c(F)c1 | > 50 µM | > 50 µM | > 50 µM | > 50 µM | > 50 µM | –
COc1cc(C(=O)/C=C/c2nc(-c3ccc(F)cc3)n3ccccc23)cc(OC)c1OC | > 50 µM | > 50 µM | > 50 µM | > 50 µM | > 50 µM | –
